Read-outs that look alike come from different tables or passages of the source. Strand notation (5' to 3'): a small letter for the sugar, then the base; units joined by * are phosphorothioate-linked, units joined directly phosphodiester-linked; [ ] holds rarer units or linkages, { } end groups; capitals alone tell only the bases. [MMI] = methylene(methylimino) internucleoside backbone linkage; e = 2'-O-(2-methoxyethyl) (MOE); [5mC] = 5-methylcytosine; d = 2'-deoxy (DNA)
Assays:
Type in all cases: cell-based, human
ICAM-1 mRNA [1] = experiment: Cell surface ICAM-1 expression in U937 cells after electroporation of MMI oligomers; settings: six concentrations 4 to 40 μM, N.A. = IC50 not obtained in the given dose range, read-out: Antisense activity (IC50) Electroporate
Protocol: ISIS 14293-14296 are corresponding oligomers with alternating MMI/P═S backbones.
U937 cells were washed once in cold Opti-MEM (Gibco-BRL, Grand Island, N.Y.) and resuspended at 4×10^6 cells/ml. Oligomer was added to 0.1 ml of cells and incubated for 10 minutes on ice. Cells were transferred to a 1 mm gap electrode (BTX, San Diego, Calif.) and electroporated at 0.75 kV/cm. Cells were incubated at room temperature for 10 minutes and transferred to pre-warmed medium. Cells were allowed to rest for 1.5 hours before ICAM-1 expression was induced with 5 ng/ml TNF-αovernight. Cells were stained with an anti-ICAM-1-PE antibody (Pharmingen, San Diego CA) the next day.

ICAM-1 mRNA [2] = experiment: Cell surface ICAM-1 expression in HUVECs after Lipofectin delivery of MMI oligomers; settings: six concentrations 6.2 to 200 nM, N.A. = IC50 not obtained in the given dose range, read-out: Antisense activity (IC50) Lipofectin
ICAM-1 mRNA [3] = experiment: Northern blot analysis of ICAM-1 transcript abundance in oligomer-treated HUVECs; settings: FIG. 2
Text: Total cellular RNA was isolated from oligomer-treated HUVECs and analyzed to determine if inhibition of ICAM-1 protein expression resulted from antisense-promoted degradation of the target transcript.
(§1) Total cellular RNA was isolated by cellular lysis using CATRIMOX-14 surfactant (Iowa Biotechnology Group, Oakdale Iowa). Isolated RNA was separated on a 1.2% agarose gel containing 1.1% formaldehyde, then transferred to a nylon membrane and UV crosslinked to the membrane using a Stratagene UV crosslinker 2400 (La Jolla Calif.). Blots were hybridized with cDNA probes in QUICKHYB solution (Stratagene). Blots were washed twice at room temperature in 2×SSC with 0.1% SDS for 10 minutes each and then once in […] SSC with 0.1% SDS at 65° C. for 30 minutes.

E-selectin mRNA [4] = experiment: Northern blot analysis of E-selectin mRNA levels in oligomer-treated HUVECs
Text: ISIS 11929 is an antisense oligonucleotide targeted to E-selectin, another cellular adhesion molecule, and was included in this experiment as a control.
as §1

E-selectin mRNA [5] = experiment: ELISA of E-selectin expression in HUVECs; settings: HUVECs; for IC50: ELISA, read-out: IC50 for reduction of E-selectin expression

Substance | IC50 (ICAM-1 mRNA [1]) [µM] | IC50 (ICAM-1 mRNA [2]) [µM] | relative abundance of the ICAM-1 transcript (Northern blot) (ICAM-1 mRNA [3]) | E-selectin mRNA levels (E-selectin mRNA [4]) | IC50 (E-selectin mRNA [5]; FIG. 5 experiment) [µM] | IC50 (E-selectin mRNA [5]; equivalent (second) experiment) [µM] | IC50 for inhibition of E-selectin expression (E-selectin mRNA [5]; FIG. 3 experiment) | inhibition of E-selectin expression (E-selectin mRNA [5]; oligomer concentration of 50 nM) [%]
ISIS 14293: T*CT*GA*GT*AG*CA*GA*GG*AG*CT*C (SEQ ID NO: 1), alternating P═S/MMI; ICAM-1 n.t. 1-20 (TCTGAGTAGCAGAGGAGCTC; linkages [MMI]s[MMI]s[MMI]s[MMI]s[MMI]s[MMI]s[MMI]s[MMI]s[MMI]s[MMI] (s phosphorothioate, o phosphodiester), sugars by position and methylation of C not given here; 3'-terminal nucleotide 2'-deoxy, non-terminal cytosines 5-methylated) | 32 | 0.115 |  |  |  |  |  | 
ISIS 11929: SEQ ID NO: 3, P═O all 2′-MOE except 3′ nt is deoxy, all C's 5meC; E-selectin 5′ cap (antisense eGeAeAeGeTe[5mC]eAeGe[5mC]e[5mC]eAeAeGeAeAe[5mC]eAeGe[5mC]dT) |  |  | did not cause an increase | did cause an increase | < 0.003 | < 0.003 | well below this | ~100

From patent US20020052331A1, “Compositions and methods for antisense inhibition of protein translation” (priority 1990, published 2002)
